The text below walks through data of US10406111B2, “Gold/lanthanide nanoparticle conjugates and uses thereof” (COLORADO SCHOOL OF MINES, priority 2009, dated 2019).

A short description of this assay: In vitro MRI relaxation properties (relaxivity). The source says:
In vitro MRI of GdNPs and Polymer Modified Gd NPs. In order to provide information about the clinical imaging viability of the polymer modified gold/Gd nanoparticles, as a positive contrast agent, in vitro MRI was employed to determine relaxation properties of the unmodified and polymer modified gold/Gd nanoparticles. Table 1 compares the MRI longitudinal and transverse relaxivities, r1 and r2, respectively, of PNIPAM-modified gold/Gd nanoparticles and gold/Gd unmodified nanoparticles to the clinically employed contrasts agents, gadopentetate dimeglumine (Magnevist®) and gadobenate dimeglumine (Multihance®). […] By taking advantage of these properties, novel theragnostic polymer-modified gold/Gd nanoparticles could be produced and exploited as contrast agents for conventional T1 MR imaging.

The structures appear in SMILES notation.

Take `CNC[C@H](O)[C@@H](O)[C@H](O)[C@H](O)CO.CNC[C@H](O)[C@@H](O)[C@H](O)[C@H](O)CO.O=C([O-])CN(CCN(CC(=O)[O-])CC(=O)O)CCN(CC(=O)[O-])CC(=O)O.[Gd+3]` [Magnevist ®, gadopentetate dimeglumine]: the “r1 (MRI longitudinal relaxivity)” value turned out to be 6.95 mM⁻¹ s⁻¹. Then `CNC[C@H](O)[C@@H](O)[C@H](O)[C@H](O)CO.CNC[C@H](O)[C@@H](O)[C@H](O)[C@H](O)CO.O=C([O-])CN(CCN(CC(=O)[O-])CC(=O)O)CCN(CC(=O)O)C(COCc1ccccc1)C(=O)[O-].[Gd+3]` (centres unmarked) [Multihance ®, gadobenate dimeglumine], with 17.7 mM⁻¹ s⁻¹.
